# From paper PMC11381239, “Endocannabinoid regulation of inward rectifier potassium (Kir) channels” (Frontiers in Pharmacology, 2024)
# Where a chain is given by its changes, count along the chain named. Read-outs that look alike come from different tables or passages of the source.
# Experiments:
# Experiment in all cases: two-electrode voltage clamp, slope conductance Gmax
# Format in all cases: cell-based
# Kir2.1 = biological target: T1, Kir2.1 (Homo sapiens, UniProt P63252); conditions: for Emax (%): maximal increase in Gmax, vehicle (ethanol) control in same table
# T1 construct: gene KCNJ2; full-length human Kir2.1 cDNA in pcDNA3.1, RNA expressed in Xenopus laevis oocytes; homotetramer
# T1 sequence (P63252 1-427): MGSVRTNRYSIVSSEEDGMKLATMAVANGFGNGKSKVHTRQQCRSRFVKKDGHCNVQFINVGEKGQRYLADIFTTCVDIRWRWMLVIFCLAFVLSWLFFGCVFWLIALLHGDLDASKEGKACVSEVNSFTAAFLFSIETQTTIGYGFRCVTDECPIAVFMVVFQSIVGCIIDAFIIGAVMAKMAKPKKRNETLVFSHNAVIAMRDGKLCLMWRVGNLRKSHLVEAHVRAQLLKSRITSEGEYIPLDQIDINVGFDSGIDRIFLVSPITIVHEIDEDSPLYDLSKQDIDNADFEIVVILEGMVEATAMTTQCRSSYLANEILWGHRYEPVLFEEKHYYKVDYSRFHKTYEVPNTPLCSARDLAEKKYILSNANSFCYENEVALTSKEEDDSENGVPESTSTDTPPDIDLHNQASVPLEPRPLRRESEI
# Excerpt: two-electrode voltage clamp, slope conductance Gmax on Kir2.1
# WT:G144S Kir2.1 = biological target: T2, WT:G144S Kir2.1 (Homo sapiens, UniProt P63252, G144S)
# T2 construct: gene KCNJ2; WT Kir2.1 co-expressed 1:1 with LQT7 mutant G144S Kir2.1 in Xenopus laevis oocytes; mixed tetramers, exact subunit stoichiometry not fixed
# T2 sequence (P63252 1-427): T1 sequence (P63252 1-427)
# T2 sequence (P63252 1-427 G144S): T1 sequence (P63252 1-427) with G144S
# Kir4.1 = biological target: T3, Kir4.1 (Rattus norvegicus, UniProt P49655)
# T3 construct: gene Kcnj10; full-length rat Kir4.1 cDNA in pcDNA3.1, RNA expressed in Xenopus laevis oocytes; homotetramer
# T3 sequence (P49655 1-379): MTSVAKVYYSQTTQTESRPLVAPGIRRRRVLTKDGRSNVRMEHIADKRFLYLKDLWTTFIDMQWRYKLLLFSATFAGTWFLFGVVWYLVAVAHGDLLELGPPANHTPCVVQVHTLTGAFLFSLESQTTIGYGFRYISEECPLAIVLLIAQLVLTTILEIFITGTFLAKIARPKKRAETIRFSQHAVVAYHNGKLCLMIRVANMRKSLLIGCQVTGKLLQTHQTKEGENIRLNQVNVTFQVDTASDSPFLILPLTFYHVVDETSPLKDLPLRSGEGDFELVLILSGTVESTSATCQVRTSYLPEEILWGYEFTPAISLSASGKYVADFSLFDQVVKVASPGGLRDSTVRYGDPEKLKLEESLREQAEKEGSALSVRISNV
# Excerpt: two-electrode voltage clamp, slope conductance Gmax on Kir4.1
# [1] = 89 mM KCl bath, pH 7.4, room temperature
Molecule,EC50 (Kir2.1) [µM],other results
CCCCCCCC/C=C\CCCCCCCC(=O)NCCO [OEA],9.2 ± 0.9,–
CCCCC/C=C\C/C=C\CCCCCCCC(=O)NCCO [LEA],29 ± 1,–
CCCCC/C=C\C/C=C\C/C=C\C/C=C\CCCC(=O)NCCO [AEA],–,Emax (%) (Kir2.1; [1]): 5.3 ± 1.3%
CCCCCCCCCCCCCCCCCCCC(=O)NCCO [ArEA],12.6 ± 4.1,EC50 (WT:G144S Kir2.1): 30.7 ± 3.4 µM; EC50 (Kir4.1): 4.5 ± 3.9 µM
CCCCC/C=C\C/C=C\C/C=C\CCCCC(=O)NCCO [ϒLnEA],36.8 ± 3.8,–
CCCCC/C=C\C/C=C\C/C=C\C/C=C\CCCCCC(=O)NCCO [DEA],32 ± 3.9,–
CCCCCCCCCCCCCCCCCC(=O)NCCO [SEA],10.2 ± 4.9,–
CCCCCC/C=C\CCCCCCCC(=O)NCCO [POEA],9.3 ± 0.7,–
CC/C=C\C/C=C\C/C=C\CCCCCCCC(=O)NCCO [αLnEA],24.5 ± 4.2,–
CCCCC/C=C\C/C=C\CCCCCCCC(=O)OC(CO)CO [2-LG],–,Emax (%) (Kir2.1; [1]): 5.4 ± 0.3%
oxy-AEA,–,"EC50 (Kir2.1; activation, 89 mM KCl bath, pH 7.4, room temperature, mode: indirect via membrane according to authors): 25.3 ± 1.1 µM"
CCCCC/C=C\C/C=C\C/C=C\C/C=C\CCCC(=O)OCC(O)CO (stereo not drawn) [1-AG],20 ± 0.9,–
CCCCCCCCCCCCCCCC(=O)OC(CO)CO [2-PG],12.7 ± 2,EC50 (WT:G144S Kir2.1): 11.7 ± 1 µM; EC50 (Kir4.1): 12.4 ± 0.7 µM
CCCCC/C=C\C/C=C\C/C=C\C/C=C\CCCC(=O)OC(CO)CO [2-AG],25.5 ± 1.1,–
CCCCC/C=C\C/C=C\C/C=C\C/C=C\CCCC(=O)N[C@@H](CO)C(=O)O [AS],–,Emax (%) (Kir2.1; [1]): 1.0 ± 0.1%
CCCCC/C=C\C/C=C\C/C=C\C/C=C\CCCC(=O)NCC(=O)O [NAGly],27.7 ± 2.8,–
CCCCCCCC/C=C\CCCCCCCCCCCCCC(=O)NCCO [NEA],23.3 ± 2.1,–
